Measurements published in patent US7220755B2, “42-O-alkoxyalkyl rapamycin derivatives and compositions comprising same” (Biosensors International Group, Ltd., priority 2003, dated 2007).
“Also recorded” adds a separate entry of the source.

What was measured:
[1] = cited from earlier work
[2] = test system: pig coronary artery (restenosis after overstretch injury); assay: Pig coronary artery overstretch injury model with drug-eluting stents; format: in vivo; details: for Diameter stenosis: lower score indicates higher efficacy
Procedure: In another study, stents carrying 42-O-(2-ethoxyethyl) rapamycin in the form of a polymer (poly-dl-lactic acid) coating were prepared for insertion into pigs with a vessel overstretch injury to the coronary artery. Comparative and control stents includes bare metal stents, stents having a polymer coating of poly-dl-lactic acid absent drug, stents carrying rapamycin in a poly-dl-lactic acid polymer coating, and stents carrying everolimus in a poly-dl-lactic acid polymer coating. The stents were inserted into vessels which seriously injured (averaging approximately 36% overstretch injury of the vessel) using an angioplasty balloon. […] In this way, it was possible to assess the relative effectiveness of the various test compounds presented to the vessels on the same metal stent/polymer platform. At the time of insertion, the extent of overstretch was recorded as a percent balloon/artery (B/A) ratio.

[3] = In vitro release rate of drug from polymer-coated stents into ethanol-water bath; format: physicochemical; details: at 96 hours; unstirred ethanol-water bath at 37° C.; poly-dl-lactic acid coated stents, average drug load 230 μg
Procedure: The in vitro release rate of drug from the stents into an unstirred, ethanol-water bath at 37° C. was measured and the results are shown in FIG. 4. The six curves in FIG. 4 correspond to six stents carrying a poly-dl-lactic acid polymer loaded with 42-O-(2-ethoxyethyl) rapamycin. Each stent held between about 224–235 μg of drug, with an average drug load of 230 μg. The polymer-drug coated stents were sterilized at 25 KGy or at 27.5 KGy prior to measuring the release rate.
100 mg poly (dl-lactide) was dissolved into 2 mL acetone at room temperature. 5 mg 42-O-(2-ethoxyethyl) rapamycin was placed in a vial and 100 μL lactide solution added. A microprocessor-controlled syringe pump was used to precision dispense 4.5 μL of the drug containing poly-dl-lactide solution to the outer surface of a metal S-Stent (available from Biosensors International Inc, Newport Beach, Calif.).

[4] = test system: porcine smooth muscle cells; assay: In vitro potency: growth suppression of smooth muscle cell cultures (porcine); format: cell-based; details: over five orders of magnitude concentration
[5] = test system: human smooth muscle cells; assay: In vitro potency: growth suppression of smooth muscle cell cultures (human); format: cell-based; details: FIG. 2, over five orders of magnitude concentration
Procedure: The ability of the cell culture to reproduce was assessed after drug exposure by addition of a colored reagent which causes a color change in the surviving cells, followed by cell cytometry. The ability of the cells to migrate was assessed when cells from the culture moved through a porous membrane barrier adjacent the culture, and again by staining and cell cytometry. The results of these tests are shown in FIG. 2 for human smooth muscle cells.

[6] = test system: pig coronary arteries (restenosis); assay: 30-day implantation of drug-eluting stents in pig coronary arteries (late loss vs injury score); details: 30 days in pig vessels; for intercept of the zero injury (late loss) / neointimal response to injury (slope of the regression line of late loss vs injury score): FIG. 10
Procedure: After preparation of the stents having a polymer-drug coating, they were implanted, as described in Example 5, into pigs for a thirty day period.
As described in Example 5, nine stents eluting 42-O-(2-ethoxyethyl) rapamycin from a polymer layer of poly-lactic acid were implanted in pigs and six control, bare metal stents were implanted. […] Quantitative coronary angiography was performed to measure the vessel lumen diameter immediately before and after stent placement and also 30 days later just prior to the follow-up angiogram taken at animal sacrifice. […] Percent stenosis (% stenosis) was determined from the measurements as: % Stenosis=[(RVD−MLD)/RVD]×100 where MLD is minimum lumen diameter and RVD is distal and proximal reference vessel diameter. The stent to artery ratio was also calculated from these measurements. The angiographic percent stenosis was calculated from the measurements of minimum lumen diameter obtained at the follow-up angiogram.
The photographs in FIGS. 5–9 permit determination via planimetry of the area of new tissue inside the stent after 30 days in vivo. The average thickness of new tissue formed inside the stent for each implant was determined and plotted against an injury score, also determined after the 30 day test period. A least-squares linear regression analysis of the data provides a sensitive method to compare the therapeutic benefit of different stent compositions.
The degree of vascular injury was also quantified by assigning an “injury score” based on the amount and length of tear of the different wall structures. The degree of injury was calculated as follows: • 0=intact internal elastic lamina • 1=ruptured internal elastic lamina with exposure to superficial medial layers (minor injury) • 2=ruptured internal elastic lamina with exposure to deeper medial layers (medial dissection) • 3=ruptured external elastic lamina with exposure to the adventitia. The mean injury score for each arterial segment was calculated by dividing the sum of injury scores at each stent strut site by the total number of stent struts in the proximal, middle, and distal stent sections using the method described by Schwartz et al. (J. Am. Coll. Cardiol., 19:267–274 (1992)).
After analysis of the late loss and injury scores, the average late loss as a function of injury score was plotted for the test stents in each animal. […] The stents were in place in the vessel for 30 days.
Three days prior to insertion of stents each animal received 650 mg aspirin, 500 mg ticlopidine daily, and 120 mg verapamil daily. Aspirin (325 mg) daily was given throughout the duration of the study. The animals were fasted twelve hours prior to stent placement.
For stent placement, each animal was immobilized with an intramuscular injection of 0.5 mg/kg acepromazine, 20 mg/kg ketamine, and 0.05 mg/kg atropine.

[7] = high dose, drug load 325 μg, polymer coat 1300 μg, 28 days
[8] = low dose, drug load 180 μg, polymer coat 1300 μg
[9] = drug load 225 μg, polymer coat 225 μg, stent length 15 mm
[10] = high dose, drug load 325 μg, polymer coat 1300 μg, 6 months
[11] = med. dose, drug load 275 μg, polymer coat 640–780 μg

SMILES	Mean lumen loss [2, 7]	Neointimal area [2, 7]	Diameter stenosis [2, 7]	Mean lumen loss [2, 8]	Neointimal area [2, 8]	Diameter stenosis [2, 8]	intercept of the zero injury (late loss) [6]	neointimal response to injury (slope of the regression line of late loss vs injury score) [6]	also measured
CO[C@H]1C[C@@H]2CC[C@@H](C)[C@@](O)(O2)C(=O)C(=O)N2CCCC[C@H]2C(=O)O[C@H]([C@H](C)C[C@@H]2CC[C@@H](O)[C@H](OC)C2)CC(=O)[C@H](C)/C=C(\C)[C@@H](O)[C@@H](OC)C(=O)[C@H](C)C[C@H](C)/C=C/C=C/C=C/1C [rapamycin]	1.07 mm	3.75 mm^2	55.0%	0.99 mm	2.80 mm^2	43.0%			solubility in water [1]: 20 micrograms per milliliter
CCOCCO[C@@H]1CC[C@@H](C[C@@H](C)[C@@H]2CC(=O)[C@H](C)/C=C(\C)[C@@H](O)[C@@H](OC)C(=O)[C@H](C)C[C@H](C)/C=C/C=C/C=C(\C)[C@@H](OC)C[C@@H]3CC[C@@H](C)[C@@](O)(O3)C(=O)C(=O)N3CCCC[C@H]3C(=O)O2)C[C@H]1OC [42-O-(2-ethoxyethyl) rapamycin]							0.126 mm	0.83 mm/injury score increment	drug load released into the bath [3]: less than half of the drug load released; inhibition of growth of smooth muscle cells [4]: effectively inhibited growth of smooth muscle cells; mean lumen late loss and percent diameter stenosis, comparison with the other stents ([2]; compared to rapamycin, everolimus, bare metal and polymer-coated stents): lowest mean lumen late loss and percent diameter stenosis; Mean lumen loss [2, 9]: 0.62 mm; Neointimal area [2, 9]: 1.30 mm^2; Diameter stenosis [2, 9]: 14.8%; inhibition of growth of smooth muscle cells [5]: effectively inhibited growth of smooth muscle cells; also recorded: inhibited cellular growth as effectively as 42-O-hydroxy heptyl rapamycin (diamonds) or rapamycin; neointimal thickness at 30 days (late loss), comparison with other stents ([6]; FIGS. 10-11): lower neointimal thickness at 30 days; also recorded: therapeutic effect when compared to bare, metal stents
CO[C@H]1C[C@@H]2CC[C@@H](C)[C@@](O)(O2)C(=O)C(=O)N2CCCC[C@H]2C(=O)O[C@H]([C@H](C)C[C@@H]2CC[C@@H](OCCO)[C@H](OC)C2)CC(=O)[C@H](C)/C=C(\C)[C@@H](O)[C@@H](OC)C(=O)[C@H](C)C[C@H](C)/C=C/C=C/C=C/1C [everolimus]	0.84 mm	3.54 mm^2	38.0%	1.54 mm	3.41 mm^2	53.0%			Mean lumen loss [2, 10]: 1.15 mm; Neointimal area [2, 10]: 4.18 mm^2; Diameter stenosis [2, 10]: 68.5%; Mean lumen loss [2, 11]: 0.85 mm; Neointimal area [2, 11]: 2.97 mm^2; Diameter stenosis [2, 11]: 45.0%
COC1CC2CCC(C)C(O)(O2)C(=O)C(=O)N2CCCCC2C(=O)OC(C(C)CC2CCC(OCCCCCCCO)C(OC)C2)CC(=O)C(C)C=C(C)C(O)C(OC)C(=O)C(C)CC(C)C=CC=CC=C1C (stereo not shown) [42-O-hydroxy heptyl rapamycin]							0.130 mm	0.126 mm/injury score increment	
